Source: patent US20240093034A1, “FLUORESCENT DYES” (EXOPHARM LIMITED, priority 2020, published 2024)

What was measured:
platelet-derived EVs = assay: Labelling of extracellular vesicles with dyes (Superose 6 HPLC, UV and FLD detection); details: EV + 2 μM dye; for FLD area (EV + dye): 1 hr 37° C., void peak area, 562 nm/583 nm (Ex/Em); for Area FLD/Area UV (EV + dye): higher ratio = greater incorporation
Procedure: Labelling of extracellular vesicles (EVs) with dyes 1-10 was performed according to the following procedure. 20 μL of platelet-derived EVs were incubated in HPLC vials with or without each dye at a final concentration of 2 μM dye, the dye stock solution being made up in water. For negative controls, an equivalent volume of the diluent solution was added to the EV solution. The sample was mixed gently. Each sample was subsequently incubated for 1 hr at 37° C. Samples were transferred and stored in the autosampler set at 4° C. A batch table was setup that injected unlabelled EVs prior to labelled EVs. A blank injection was run after each labelled EV experiment to ensure there was no carryover. 15 μL of each sample was injected onto a Superose 6 Increase column (3.2/300) from Cytiva. The flow rate was set at 0.15 mL min* The Shimadzu BioHPLC was run in isocratic mode with Buffer A: 1× PBS (phosphate-buffered saline), pH 7.4, 100 nm filtered. The column oven temperature was set at 30° C. Total run duration was 30 min. Data was collected using two detectors. The PDA (UV detector) was set to scan from 190-800 nm and a channel of the FLD (fluorescence detector) was set at 562 nm/583 nm (Ex/Em). Titration experiments were conducted to confirm that excess dye was removed. The areas of the void peaks from the 214 nm absorption and the 583 nm emission were calculated by the LabSolutions software using the manual integration function. To normalise the fluorescent signal, the total fluorescent area was divided by the UV 214 nm area. This ratio can be used to rank each dye, with higher ratios indicative of greater incorporation.

[1] = test system: normal human dermal fibroblasts (NHDF); assay: Labelling of human cells with dyes (plate fluorescence); type: cell-based; details: 2 μM dye, 1 hr 37° C., washed with HBSS; higher = more incorporation
Procedure: Labelling of human cells with dyes 1-10 was performed according to the following procedure. Each well of a Costar 96 well flat bottom plate was seeded with 5,000 normal human dermal fibroblasts (NHDF; not older than P9) and allowed to attach overnight in full media: fibroblast growth media (Lonza)+2% v/v fetal calf serum. Each dye was diluted 1:50 from a stock of 1 mM with 10 mM L-histidine, 150 mM NaCl, pH 6.0, to a final concentration of 20 μM. The dye was subsequently added to full media at a further 1:10 dilution to a final concentration of 2 μM. The media on the cells was subsequently replaced with the freshly prepared full media containing the dye. For negative controls, an equivalent volume of the diluent solution was added to the cell solution. Cells were incubated for 1 hr at 37° C. and then washed with 1 xHBSS (Hank's balanced salt solution) to remove free dye. Plate was imaged using the CLARIOStar spectrophotometer (5x5 matrix mode, average of 25 data points, 3 wells for each dye). A higher fluorescence indicates a higher amount of incorporation into the cells.

NHDF cells = assay: Labelling of NHDF cells with dyes alone and with EVs (Plexaris) labelled with dyes; type: cell-based, human; details: for incorporation into NHDFs, Plexaris (PLX)+dye (FIG. 6): Example 9, 0.2 μM dye, 1 hr 37° C.; for extent of incorporation into cells versus dye 2 alone (FIG. 4(a)) / extent of incorporation into cells versus PLX+dye 2 (FIG. 4(b)): 0.2 μM; for extent of incorporation into cells versus dye 2 alone (FIG. 4(a)): normalised to dye 2; for extent of incorporation into cells versus PLX+dye 2 (FIG. 4(b)): dye with PLX, normalised to Plexaris+dye 2
Procedure: (§1) Labelling of NHDF cells with dyes 11-18 alone and EVs labelled with dyes 11-18 was performed according to the following procedure. Each well of a Costar 96 well flat bottom plate was seeded with 5,000 normal human dermal fibroblasts (NHDF; not older than P9) and allowed to attach overnight in full media: fibroblast growth media (Lonza)+2% v/v fetal calf serum. Each dye was diluted in water to a final concentration of 1 mM. The dyes were then diluted to a final concentration of 2 μM in either a base formulation (1× PBS) or a sample of Plexaris (purified EVs derived from platelets) in 1× PBS and incubated at 1 hr at 37° C. The dyes were subsequently added onto the NHDFs at a further 1:10 dilution to a final concentration of 0.2 μM. Cells were incubated for 1 hr at 37° C. and then washed with 1× HBSS (Hank's balanced salt solution) to remove free dye. Plate was imaged using the CLARIOStar spectrophotometer (5×5 matrix mode, average of 25 data points, 3 wells for each dye). The data was normalised against either dye 2 or Plexaris+dye 2. A higher fluorescence indicates a higher amount of incorporation into the cells.
as §1, with “with” for “with dyes 11-18 alone and”, “4, 6, 17, 18, 23, 24 and 25” for “11-18”, “phosphate buffered saline (PBS)” for “water”, “in” for “in either a base formulation (1× PBS) or a sample of”, “in” for “in 1×”, “against” for “against either dye 2 or”

SMILES	FLD area (EV + dye) (platelet-derived EVs)	Area FLD/Area UV (EV + dye) (platelet-derived EVs)	FLD [1]	incorporation into NHDFs, Plexaris (PLX)+dye (FIG. 6) (NHDF cells)	extent of incorporation into cells versus dye 2 alone (FIG. 4(a)) (NHDF cells)	extent of incorporation into cells versus PLX+dye 2 (FIG. 4(b)) (NHDF cells)
CCCCCCCCCCCCCCCCN(C)C(=O)c1ccccc1-c1c2ccc(=[N+](CC)CC)cc-2oc2cc(N(CC)CC)ccc12.[Cl-] [Dye 1, Rhodamine B N-methylhexadecylamide]	2281007	2.09	120641	–	–	–
CCCCCCCCCCCCCCCCCCCCN(C)C(=O)c1ccccc1-c1c2ccc(=[N+](CC)CC)cc-2oc2cc(N(CC)CC)ccc12.[Cl-] [Dye 3, Rhodamine B N-methylicosaneamide]	4270562	3.63	43073	–	–	–
CCCCCCCCCCCCCCCCCCCCCCN(C)C(=O)c1ccccc1-c1c2ccc(=[N+](CC)CC)cc-2oc2cc(N(CC)CC)ccc12.[Cl-] [Dye 4]	1901680	2.08	18027	found to incorporate into NHDFs	–	–
CCCCCCCCCCCCCCN(CCCCC)C(=O)c1ccccc1-c1c2ccc(=[N+](CC)CC)cc-2oc2cc(N(CC)CC)ccc12.[Cl-] [Dye 5, Rhodamine B N-pentyltetradecanamide]	2405326	1.25	106332	–	–	–
CCCCCCCCCCCCCCCCCCN(CCCCC)C(=O)c1ccccc1-c1c2ccc(=[N+](CC)CC)cc-2oc2cc(N(CC)CC)ccc12.[Cl-] [Dye 6, Rhodamine B N-pentyloctadecanamide]	4247970	2.36	20270	found to incorporate into NHDFs	–	–
CCCCCCCCCCCCCCCCN(CCOC)C(=O)c1ccccc1-c1c2ccc(=[N+](CC)CC)cc-2oc2cc(N(CC)CC)ccc12.[Cl-] [Dye 7, Rhodamine B N-ethyl methyl ether hexadecanamide]	1456410	1.38	97347	–	–	–
CCCCCCCCCCCCCCCCCCN(CCOC)C(=O)c1ccccc1-c1c2ccc(=[N+](CC)CC)cc-2oc2cc(N(CC)CC)ccc12.[Cl-] [Dye 8, Rhodamine B N-ethyl methyl ether octadecanamide]	3422473	2.92	83404	–	–	–
CCCCCCCCCCCCCCCCCCN(CCO)C(=O)c1ccccc1-c1c2ccc(=[N+](CC)CC)cc-2oc2cc(N(CC)CC)ccc12.[Cl-] [Dye 9, Rhodamine B N-(2-hydroxyethyl)octadecanamide]	4558422	3.33	83536	–	–	–
CCCCCCCCCCCCCCCCCCCCN(CCOC)C(=O)c1ccccc1-c1c2ccc(=[N+](CC)CC)cc-2oc2cc(N(CC)CC)ccc12.[Cl-] [Dye 10, Rhodamine B N-ethyl methyl ether icosaneamide]	2826617	2.55	45943	–	–	–
CCCCCCCCCCCCCCCCCCCN(C)C(=O)c1ccccc1-c1c2ccc(=[N+](CC)CC)cc-2oc2cc(N(CC)CC)ccc12.[Cl-] [Dye 12, Rhodamine B N-methylnonadecylamide]	–	–	–	–	incorporated to the cells to a larger extent	incorporated to the cells to a larger extent
CCCCCCCCCCCCCCCCCCN(CCC)C(=O)c1ccccc1-c1c2ccc(=[N+](CC)CC)cc-2oc2cc(N(CC)CC)ccc12.[Cl-] [Dye 14, Rhodamine B N-propyloctadecylamide]	–	–	–	–	incorporated to the cells to a larger extent	incorporated to the cells to a larger extent
CCCCCCCCCCCCCCCCCCN(CC)C(=O)c1ccccc1-c1c2ccc(=[N+](CC)CC)cc-2oc2cc(N(CC)CC)ccc12.[Cl-] [Dye 15, Rhodamine B N-ethyloctadecylamide]	–	–	–	–	incorporated to the cells to a larger extent	incorporated to the cells to a larger extent
CCCCCCCC/C=C\CCCCCCCCN(C)C(=O)c1ccccc1-c1c2ccc(=[N+](CC)CC)cc-2oc2cc(N(CC)CC)ccc12 [Dye 17, Rhodamine B N-methyloleylamide]	–	–	–	found to incorporate into NHDFs	incorporated to the cells to a larger extent	incorporated to the cells to a larger extent
CCCCCCCC/C=C/CCCCCCCCN(C)C(=O)c1ccccc1-c1c2ccc(=[N+](CC)CC)cc-2oc2cc(N(CC)CC)ccc12 [Dye 18, Rhodamine B N-methylelaidylamide]	–	–	–	found to incorporate into NHDFs	incorporated to the cells to a larger extent	incorporated to the cells to a larger extent
CCCCCCCCCCCCCCCCCCN(C)C(=O)c1ccccc1-c1c2cc/c(=[N+](/CC)CC(F)(F)F)cc-2oc2cc(N(CC)CC(F)(F)F)ccc12.[Cl-] [Dye 23, hexafluoro Rhodamine B N-methyloctadecylamide]	–	–	–	found to incorporate into NHDFs	–	–
CCCCCCCC/C=C/CCCCCCCCN(C)C(=O)c1ccccc1-c1c2cc/c(=[N+](/CC)CC(F)(F)F)cc-2oc2cc(N(CC)CC(F)(F)F)ccc12.[Cl-] [Dye 24]	–	–	–	found to incorporate into NHDFs	–	–
CCCCCCCC/C=C\CCCCCCCCN(C)C(=O)c1ccccc1-c1c2cc/c(=[N+](/CC)CC(F)(F)F)cc-2oc2cc(N(CC)CC(F)(F)F)ccc12.[Cl-] [Dye 25, hexafluoro rhodamine B N-methyloleylamide]	–	–	–	found to incorporate into NHDFs	–	–
